Several values for one entry are separate records, joined by “and”; a condition that tells them apart may be missing. Equal entries are not always repeated. Entries after “also recorded” stand apart in the source; their conditions may differ.

From US6403554B2, “Polyunsaturated fatty acid derivatives and their use” (Ardenia Investments Ltd., priority 1998, dated 2002) come the findings set out here.

The subject of assay [1] is antibody-forming cells (AFC) in the spleen. As to the kind of experiment: Influence of AFP/compound complexes and their components on humoral immune response (AFC in spleen). The format is in vivo, C57B1/6 mice. Particulars: for Dose at which immunostimulating effect in vivo is displayed: compound in a complex with AFP. As to the method:
0.15 ml of AFP/Compound 3 complex was administered intravenously to 6 mice males of C57B1/6 line (weight 18-22 g) in the dose of […] of AFP and 45.5 μg of compound 3 per capita. Simultaneously suspension of 5·10^7 sheep erythrocytes was injected intraperitoneally (0.2 ml per capita). In the group with compound 3 mice were injected intravenously by one in the dose of 45.5 μg. Animals of group with AFP received 9 μg of AFP. Mice of control group were injected intravenously with equal volume of saline. Complex AFP/Compound 3 effect on humoral immune response was analyzed by counting the quantity of AFC in the spleen according to Cunningham (per 10^6 spleen cells and per spleen).
0.15 ml of AFP/Compound 2a complex (1:100) was administered intravenously to 6 mice males of C57B1/6 line (weight 18-22 g) in the dose of 9 μg of AFP and 45.5 μg of compound 2a per capita. Simultaneously, a suspension of 5·10^7 sheep erythrocytes was injected intraperitoneally (0.2 ml per capita). In the group with compound 2a mice were injected intravenously by one in the dose of 45.5 μg. Animals of group with AFP received 9 μg of AFP. Mice in the control group were injected intravenously with an equal volume of saline. The effect of the AFP/Compound 2a complex on humoral immune response was analyzed by counting the quantity of AFC in the spleen according to Cunningham (per 10^6 spleen cells and per spleen).
(§1) 0.15 ml of AFP/Compound 10 complex (1:200) was administered intravenously to 6 male mice of C57B1/6 line (weight 18-22 g) in the dose of 9 μg of AFP and 91 μg of compound 10 per capita. Simultaneously, a suspension of 5·10^7 sheep erythrocytes was injected intraperitoneally (0.2 ml per capita). In the group receiving compound 10 mice were injected intravenously by one in the dose of 91 μg. Animals in the group with AFP received 9 μg of AFP. Micein the control group were injected intravenously with an equal volume of saline. The effect of the AFP/Compound 10 complex on humoral immune response was analyzed by counting the quantity of AFC in the spleen according to Cunningham (per 10^6 spleen cells and per spleen).
as §1, with “AFP/Compound 14” for “AFP/Compound 10”, “compound 14” for “compound 10”, “group with” for “group receiving”, “Animals of” for “Animals in the”, “AFP. Mice in” for “AFP. Micein”
0.15 ml of AFP/Compound 7 complex (1:200) was administered intravenously to 6 male mice of C57B1/6 line (weight 18-22 g) in the dose of 9 μg of AFP and 91 μg of compound 7 per capita. Simultaneously, a suspension of 5·10^7 sheep erythrocytes was injected intraperitoneally (0.2 ml per capita). In the group with compound 7 mice were injected intravenously by one in the dose of 91 μg. Animals of group with AFP received 9 μg of AFP. Mice of control group were injected intravenously with equal volume of saline. AFP/Compound 7 complex effect on humoral immune response was analyzed by counting the quantity of AFC in the spleen according to Cunningham (per 10^6 spleen cells and per spleen).
0.15 ml of AFP/Compound 15 complex (1:200) was administered intravenously to 6 mice males of C57B1/6 line (weight 18-22 g) in the dose of 9 μg of AFP and 91 μg of compound 15 per capita. Simultaneously, a suspension of 5·10^7 sheep erythrocytes was injected intraperitoneally (0.2 ml per capita). In the group receiving compound 15, the mice were injected intravenously by one in the dose of 91 μg. Animals in the AFP-group received 9 μg of AFP. […]

The subject of assay [2] is hemagglutinating antibodies in serum. Briefly: Humoral immune response: titers of hemagglutinating antibodies in serum. Format: in vivo, C57B1/6 mice. The settings on record: serum, female mice. On the procedure:
0.15 ml of compound 10 was administered intravenously to 6 mice females of CS7B1/6 line (weight 18-22 g) in doses of 45.5, 91 and 136.5 μg of compound 10 per capita for each testing group according to the dose. Simultaneously, a suspension of 5·10^7 sheep erythrocytes was injected intraperitoneally (0.2 ml per capita). Mice in the control group were injected intravenously with equal volume of saline. The effects of compound 10 on humoral immune response were analyzed both by counting the quantity of AFC in the spleen according to Cunningham (per 10^6 spleen cells and per spleen) and estimating the titers of hemagglutining antibodies in serum of the animals (Cunningham A. J., Nature, 1965, Vol.207, No 5001. P.1106-1107), while the titers of hemagglutinating antibodies were evaluated according to litterature (Evans J. et al., Cell, 1974; Vol 3., p.153-158, Feizi T., Menger E., Transfusion, 1970, Vol. 10, p.33-35,).
(§2) 0.15 ml of compound 11 was administered intravenously to 6 female mice of the C57B1/6 line (weight 18-22 g) in doses of 45.5, 91 and 136.5 μg of compound 11 per capita for each testing group according to the dose. Simultaneously, a suspension of 5·10^7 sheep erytrocytes was injected intraperitoneally (0.2 ml per capita). Mice in the control group were injected intravenously with an equal volume of saline. The effects of compound 11 on humoral immune response was analysed both by counting the quantity of AFC in the spleen according to Cunningham (per 10^6 spleen cells and per spleen) and estimating the titers of hemagglutining antibodies in serum of the animals.
as §2, with “12” for “11”, “erythrocytes” for “erytrocytes”, “analyzed” for “analysed”
as §2, with “compound 8” for “compound 11”, “sheep erythrocytes” for “sheep erytrocytes”, “Mice of” for “Mice in”, “response were analyzed” for “response was analysed”
as §2, with “compound 3” for “compound 11”, “Mice of” for “Mice in”, “with” for “with an”, “response were” for “response was”
0.15 ml of compound 4 was administered intravenously to 6 female mice of the C57B1/6 line (weight 18-22 g) in a doses of 45.5, 91 and 136.5 μg of compound 4 per capita for each testing group according to the dose. Simultaneously, a suspension of 5·10^7 sheep erythrocytes was injected intraperitoneally (0.2 ml per capita). […]

[3] abbreviates: AFP alone 9 μg/mouse i.v., 5-th day, male mice.

`CC/C=C\C/C=C\C/C=C\C/C=C\C/C=C\CCCC(=O)N[C@@H](COP(=O)(O)O)C(=O)O` [Compound 14, N-eicosapentaenoyl-o-phospho-L-serine]: the Immunogenic activity entry in assay [1] (compound alone, 91 μg/mouse) is listed as “no immunogenic activity; also recorded: do not inhibit immunogenic activity”. The “Dose at which immunostimulating effect in vivo is displayed” value (“Dose at which immunostimulating effect” for short) in assay [1] came to 91 μg/mouse. Also, the results for the Amount of hemagglutinins in assay [2] (45.5 μg/mouse i.v.), in assay [2] (91 μg/mouse i.v.) and in assay [2] (136.5 μg/mouse i.v.) were 6.5 ± 0.3 Log2 T, 7.0 ± 0.3 Log2 T and 7.2 ± 0.2 Log2 T, respectively.
For `CC/C=C\C/C=C\C/C=C\C/C=C\C/C=C\C/C=C\CCC(=O)N[C@@H](COP(=O)(O)O)C(=O)O` [Compound 10, N-docosahexaenoyl-o-phospho-L-serine], the Immunogenic activity entry in assay [1] (compound alone, 91 μg/mouse) is reported as “no immunogenic activity; also recorded: do not inhibit immunogenic activity”. The “Dose at which immunostimulating effect” value in assay [1] was determined as 91 μg/mouse. The Amount of hemagglutinins in assay [2] (45.5 μg/mouse i.v.) amounted to 7.8 ± 0.3 Log2 T; in assay [2] (91 μg/mouse i.v.), 7.8 ± 0.3 Log2 T; in assay [2] (136.5 μg/mouse i.v.), 8.5 ± 0.4 Log2 T.
For `CC/C=C\C/C=C\C/C=C\C/C=C\C/C=C\CCCC(=O)N[C@H](C(=O)O)[C@@H](C)OP(=O)(O)O` [Compound 15, N-eicosapentaenoyl-o-phospho-L-threonine], in assay [1] (compound alone, 91 μg/mouse), the Immunogenic activity result was “no immunogenic activity; also recorded: do not inhibit immunogenic activity”. Besides, in assay [1], the “Dose at which immunostimulating effect” value was 91 μg/mouse.

B1: human AFP: Alpha-fetoprotein isolated from human cord blood by immunoaffinity chromatography; AFP of Examples 38-41 (protein, UniProt P02771 19-609, looked up)
Alpha-fetoprotein: RTLHRNEYGIASILDSYQCTAEISLADLATIFFAQFVQEATYKEVSKMVKDALTAIEKPTGDEQSSGCLENQLPAFLEELCHEKEILEKYGHSDCCSQSEEGRHNCFLAHKKPTPASIPLFQVPEPVTSCEAYEEDRETFMNKFIYEIARRHPFLYAPTILLWAARYDKIIPSCCKAENAVECFQTKAATVTKELRESSLLNQHACAVMKNFGTRTFQAITVTKLSQKFTKVNFTEIQKLVLDVAHVHEHCCRGDVLDCLQDGEKIMSYICSQQDTLSNKITECCKLTTLERGQCIIHAENDEKPEGLSPNLNRFLGDRDFNQFSSGEKNIFLASFVHEYSRRHPQLAVSVILRVAKGYQELLEKCFQTENPLECQDKGEEELQKYIQESQALAKRSCGLFQKLGEYYLQNAFLVAYTKKAPQLTSSELMAITRKMAATAATCCQLSEDKLLACGEGAADIIIGHLCIRHEMTPVNPGVGQCCTSSYANRRPCFSSLVVDETYVPPAFSDDKFIFHKDLCQAQGVALQTMKQEFLINLVKQKPQITEEQLEAVIADFSGLLEKCCQGQEQEVCFAEEGQKLISKTRAALGV
Consider B1, for which, in assay [1] (AFP alone, 9 μg/mouse), the Immunogenic activity entry is listed as “no immunogenic activity; also recorded: do not inhibit immunogenic activity”.

B2: rat AFP: Alpha-fetoprotein isolated from neonatal rat serum; AFP of Examples 42-44 (protein, UniProt P02773 25-611, looked up)
Alpha-fetoprotein: RVLHTNEFGIESTLDSSQCPTEKNMFNVATIVVAQFVQDATKAEVNKMSSDALAAMKENTGDGCLENQLSVFLDEICHETELSNKYGFSGCCNQSGVERHQCLLARKKTAPDSVPPFHFPETAESCPAYEENRAMSINTFIYDVSKRNPFLYAPTILYLAAQYDKAVPACCKADNMEECFQTKRASMAKELREGSMLNEHVCAVIRKFGSRNLQAVLIIKLSQKFPKANITEIRKLALDVAHIHEQCCHGNAMECLQDGESVMTHMCSQQEILSSKTAECCKLPTIELGYCIIHAENGDKPEGLTLNPSEFLGDRNFAQFSSEEKLLFMASFLHEYSRNHPNLPVSVILKTAKSYQEILEKCSQSETPSKCQDNMEEELQKHIQESQALAKQSCNLYQKLGPYYLQNLFLIGYTRKAPQLTSAELIDLTGKMVSIASTCCQLSEEKRSACGEGLADIYIGHLCLRHEANPVNSGINHCCSSSYSNRRLCITSFLRDETYVPPPFSEDKFIFHKDLCQAQGRALQTMKQELLINLVKQKPEMTEEQHAAVTADFSGLLEKCCKDQDQEACFAKEGPKLISKTREALGV
As for B2, in assay [1] (setting [3]), the “Relative amount of AFC (per 10^6 spleen cells)” value is 521.4±49.1 and 507.2±27.5 and 346.1±26.8; the “Total AFC amount (per spleen)” value was 59.7±5.1 ·10^3 and 64.6±6.8 ·10^3 and 34.1±3.3 ·10^3. The Immunogenic activity entry in assay [1] (AFP alone, 9 μg/mouse) is given as “no immunogenic activity; also recorded: do not inhibit immunogenic activity”.
